Results from US11352624B2, “Reducing nonsense-mediated MRNA decay” (Cold Spring Harbor Laboratory, priority 2013, dated 2022).

Experiments:
[1] = tested on: mammalian cells carrying PTCs related to Usher syndrome, Rett syndrome, cystic fibrosis, and mucopolysaccharidosis I-Hurler (MPS I-H); conditions: cited from earlier work
MECP2 S65X transcript = assay: MECP2 S65X minigene reporter, mRNA level after ASO transfection; assay type: cell-based, human; conditions: microwalk of 19 ASOs
From the text: (§1) In some examples, it is desirable to start with mutations located in the last presumptive EJC-bound exon, as targeting only one junction at a time will simplify the interpretation of results. Once the effectiveness of preventing EJC deposition by ASOs is confirmed, two or more junctions are targeted. In some examples, three mutations for each gene are selected, and only mutations that lead to a transcript level <50% of the wild-type transcript will be targeted by the ASO microwalk (discussed below). […] Briefly, minigenes carrying the selected mutations and their wild-type versions are co-transfected with a GFP-expressing vector into HeLa cells. Forty-eight hours later, RNA is extracted and radioactive RT-PCR is performed. Products corresponding to the wild-type and mutant minigenes are normalized to GFP expression, and the percentage of the mutant over the wild-type transcript is calculated. In the case of integrated minigenes into U2OS cells, wild-type and mutant minigene products are normalized to endogenous housekeeping genes, e.g. GAPDH.
(§2) ASO microwalks are performed as previously described (7), altogether targeting a region that spans 33 nt from −6 to −38 of the 3′ end of exons that are EJC-bound (FIG. 2). […] Abrogation of NMD is assessed by RT-PCR, and the percentage of mutant transcript is calculated as described above. […]

[2] = tested on: PTC-containing HBB transcript (T39); assay: Radioactive RT-PCR of HeLa cells co-transfected with HBB reporters and ASOs; assay type: cell-based, human; conditions: for mRNA levels of PTC-containing HBB transcript (T39): HeLa cells, ASO 50 nM co-transfected with HBB Q39X gene, compared with control-ASO, percentages normalized to WT
From the text: as §1
as §2, with “2). Briefly, cell lines expressing minigenes carrying mutations in the last EJC-bound exon or their wild-type versions and GFP (by transfection using lipofectamine or induction with tetracycline) are co-transfected with each of the 15-mer ASOs, independently.” for “2).”
A set of 19 overlapping 2′-O-methoxyethyl phosphorothioate (MOE-P=S) ASO 15mers targeting the canonical EJC region in exon 2 of HBB were synthesized. […] The levels of spliced HBB mRNA were then measured after transient or induced expression using radioactive RT-PCR. […] Truncated protein levels resulting from the ASO treatment were assessed by western blot analysis using anti-GFP antibody.

[3] = tested on: PTC-containing CFTR transcript (W1282X); assay: Radioactive RT-PCR of cells expressing CFTR minigene carrying W1282X, transfected with ASOs; assay type: cell-based, human; conditions: for relative potency among ASOs of each CFTR exon-exon junction (screening): boundaries 24/25, 25/26, 26/27, 19 ASOs each
Description: ASO microwalks are performed as previously described (7), altogether targeting a region that spans 33 nt from −6 to −38 of the 3′ end of exons that are EJC-bound (FIG. 2). Briefly, cell lines expressing minigenes carrying mutations in the last EJC-bound exon or their wild-type versions and GFP (by transfection using lipofectamine or induction with tetracycline) are co-transfected with each of the 15-mer ASOs, independently. In total, 19 ASOs that are consecutively shifted by 1 nt are tested for each EJC-bound exon-exon junction downstream of the mutations (FIG. 2). This methodology was followed in designing the sequences for the ASOs to target PTC-containing (e.g., disease-causing nonsense mutation) HBB alleles (See SEQ ID NOs 1-19), MECP2 alleles (See SEQ ID NOs 20-38), CFTR alleles (See SEQ ID NOs 39-114), DMD alleles (See SEQ ID NOs 115-190), and IDUA alleles (See SEQ ID Nos 191-268). Different concentrations of ASOs are tested to obtain a dose-response curve. In the case of genes containing more than one exon-exon junction downstream of a PTC, minigene intermediates are constructed to screen for NMD-inhibiting ASOs one junction at a time and in combination with the best targeting ASO that resulted from the screening of the upstream junction. Abrogation of NMD is assessed by RT-PCR, and the percentage of mutant transcript is calculated as described above. Because some of the ASOs might interfere with splicing-factor binding sites, it is important to determine whether the splicing of the targeted exons is adversely affected. Only the ASOs that abrogate NMD without negative effects on splicing are pursued.
Moreover, minigenes consisting of CFTR exons 22-25, 22-26 and 22-27 carrying the W1282X mutation in exon 23 as well as its restive wild-type version were generated. As described above, 19 15-mer ASOs were obtained that target a region spanning nucleotides −38 to −6 of the exons 24/25 boundary and transfected to CFTR minigene expressing cells. Once this screening identified the best NMD inhibiting ASO, it is then transfected in combination with each the 19 15-mer ASOs that target a region spanning nucleotides −38 to −6 of the exons 25/26 boundary. The resulting best combination of ASOs (from each exon-exon boundary) was then transfected in combination with each of the 19 15-mer ASOs that target a region spanning nucleotides −38 to −6 of the exons 26/27 boundary. The levels of spliced CFTR mRNA were then measured after induced expression using radioactive RT-PCR.

In the case of `NCC[C@H](O)C(=O)N[C@@H]1CC(N)[C@@H](O[C@H]2OC(CO)[C@@H](O)[C@H](O)C2N)[C@H](O[C@@H]2O[C@H](CN)[C@H](O)C2O)C1O` (some centres unmarked) [NB54], the “restoration of functional protein” value [1] is listed as “restore a significant amount of functional protein”.

For “TACTTCCCAGCAGAG (listed as DNA, chemistry not given here) [SEQ ID NO: 25]”, the “relative potency among ASOs targeting MECP2 exon 3” value (MECP2 S65X transcript) was “most potent ASO targeting MECP2 exon 3”.

In the case of `C[C@@H](O)C1O[C@H](O[C@@H]2C(N)C[C@@H](NC(=O)[C@@H](O)CCN)[C@@H](O)C2O[C@@H]2O[C@H](CN)[C@H](O)C2O)[C@@H](N)C(O)[C@@H]1O` (some centres unmarked) [NB84], the “restoration of functional protein” value [1] is given as “restore a significant amount of functional protein”.

With “CTCAGGATCCACGTG (2'-MOE phosphorothioate, further chemistry not given here) [SEQ ID NO: 15, 2′-O-methoxyethyl phosphorothioate (MOE-P=S) 15mer]” the “mRNA levels of PTC-containing HBB transcript (T39)” value [2] was “increase in mRNA levels” and the “relative potency among ASOs targeting HBB exon 2” value ([2]; microwalk of 19 ASOs, -38 to -6 from the exon 2/exon 3 junction) was “most potent ASO targeting HBB exon 2”.

With “CATATTTCTTGATCA (listed as DNA, chemistry not given here) [SEQ ID NO: 65, ASO targeting CFTR exon 24]” the “relative potency among ASOs of each CFTR exon-exon junction (screening)” value (“relative potency among ASOs … (screening)” below) [3] was “most potent ASOs targeting each exon-exon junction”.

With “ACTGGGTTCATCAAG (listed as DNA, chemistry not given here) [SEQ ID NO: 83, ASO targeting CFTR exon 25]” the “relative potency among ASOs … (screening)” value [3] was “most potent ASOs targeting each exon-exon junction”.

In the case of `NC[C@H]1O[C@@H](OC2C(O)[C@H](N)CC(N)[C@H]2O[C@H]2OC(CO)[C@@H](O)C(O)C2N)C(O)C1O` (some centres unmarked) [NB30], the “restoration of functional protein” value [1] is listed as “restore a significant amount of functional protein”.

For “TCTCAGGATCCACGT (all 2'-MOE, all phosphorothioate, methylation of C not given here) [SEQ ID NO: 16, ASO targeting HBB exon 2; 2′-O-methoxyethyl phosphorothioate (MOE-P=S) 15mer]”, the “mRNA levels of PTC-containing HBB transcript (T39)” value [2] was “increase in mRNA levels”.

With “GCATTCCAGCATTGC (listed as DNA, chemistry not given here) [SEQ ID NO: 107, ASO targeting CFTR exon 26]” the “mRNA level of CFTR W1282X transcript, ASOs tested independently (relative potency)” value ([3]; CFTR 22-17 minigene, one ASO per exon-exon junction downstream of W1282X) was “most potent ASO” and the “relative potency among ASOs … (screening)” value [3] was “most potent ASOs targeting each exon-exon junction”.
